From ChEMBL document CHEMBL5608246, “Membrane-Targeting Amphiphilic Honokiol Derivatives Containing an Oxazole Moiety as Potential Antibacterials against Methicillin-Resistant Staphylococcus aureus” (J Med Chem, 2024)
Converted amounts (≈) assume the structure as drawn. Values belong to the compound of their own block, whether it stands above or below them.

Key:
[1] = system: Staphylococcus aureus; assay: Antibacterial activity against Staphylococcus aureus ATCC 29213 incubated for 16 to 18 hrs by broth dilution method; assay type: functional; settings: time 16-18 hrs
[2] = system: Staphylococcus aureus; assay: Antibacterial activity against methicillin resistant Staphylococcus aureus N315 incubated for 16 to 18 hrs by broth dilution method; assay type: functional; settings: time 16-18 hrs
[3] = system: Staphylococcus aureus; assay: Antibacterial activity against methicillin resistant Staphylococcus aureus M11 incubated for 16 to 18 hrs by broth dilution method; assay type: functional; settings: time 16-18 hrs
[4] = system: Staphylococcus aureus; assay: Antibacterial activity against methicillin resistant Staphylococcus aureus M12 incubated for 16 to 18 hrs by broth dilution method; assay type: functional; settings: time 16-18 hrs
[5] = system: Staphylococcus aureus; assay: Antibacterial activity against methicillin resistant Staphylococcus aureus M13 incubated for 16 to 18 hrs by broth dilution method; assay type: functional; settings: time 16-18 hrs
[6] = system: Staphylococcus aureus; assay: Antibacterial activity against methicillin resistant Staphylococcus aureus M14 incubated for 16 to 18 hrs by broth dilution method; assay type: functional; settings: time 16-18 hrs
[7] = system: Staphylococcus aureus; assay: Antibacterial activity against methicillin resistant Staphylococcus aureus M16 incubated for 16 to 18 hrs by broth dilution method; assay type: functional; settings: time 16-18 hrs
[8] = system: Staphylococcus aureus; assay: Antibacterial activity against methicillin resistant Staphylococcus aureus M17 incubated for 16 to 18 hrs by broth dilution method; assay type: functional; settings: time 16-18 hrs
[9] = system: Staphylococcus aureus; assay: Antibacterial activity against methicillin resistant Staphylococcus aureus M20 incubated for 16 to 18 hrs by broth dilution method; assay type: functional; settings: time 16-18 hrs
[10] = system: Staphylococcus aureus; assay: Antibacterial activity against methicillin resistant Staphylococcus aureus M21 incubated for 16 to 18 hrs by broth dilution method; assay type: functional; settings: time 16-18 hrs
[11] = system: Staphylococcus aureus; assay: Antibacterial activity against methicillin resistant Staphylococcus aureus M22 incubated for 16 to 18 hrs by broth dilution method; assay type: functional; settings: time 16-18 hrs
[12] = system: Staphylococcus aureus; assay: Antibacterial activity against methicillin resistant Staphylococcus aureus M23 incubated for 16 to 18 hrs by broth dilution method; assay type: functional; settings: time 16-18 hrs
[13] = system: Escherichia coli; assay: Antibacterial activity against Escherichia coli ATCC 25922 incubated for 16 to 18 hrs by broth dilution method; assay type: functional; settings: time 16-18 hrs
[14] = Hemolytic activity in sheep RBC incubated for 1 hr; assay type: toxicity, cell-based, Ovis aries, Erythrocyte; settings: sheep red blood cells (erythrocytes)
[15] = Selectivity index, ratio of HC50 for sheep RBC to MIC for Staphylococcus aureus ATCC 29213; assay type: toxicity; settings: sheep red blood cells, read-out: Selectivity Index

SMILES: C=CCc1cc(-c2ccc(OCCC[N+](C)(C)CC(=O)NCCCC)c(CC=C)c2)c2oc(-c3ccccc3F)nc2c1.[Br-]
MIC [1]: 4 µg/mL
MIC [2]: 8 µg/mL
MIC [3]: 4 µg/mL
MIC [4]: 4 µg/mL
MIC [5]: 4 µg/mL
MIC [6]: 4 µg/mL
MIC [7]: 4 µg/mL
MIC [8]: 4 µg/mL
MIC [9]: 4 µg/mL
MIC [10]: 8 µg/mL
MIC [11]: 4 µg/mL
MIC [12]: 4 µg/mL
MIC [13]: 128 µg/mL
HC50 at 1 h [14]: 110 µg/mL
selectivity ratio [15]: 27.4

SMILES: C=CCc1cc(-c2ccc(OCCC[N+](C)(C)CC(=O)NCCCC)c(CC=C)c2)c2oc(-c3ccc(C(F)(F)F)cc3)nc2c1.[Br-]
MIC [1]: 128 µg/mL
MIC [2]: 128 µg/mL
MIC [3]: 8 µg/mL
MIC [4]: 16 µg/mL
MIC [5]: 8 µg/mL
MIC [6]: 16 µg/mL
MIC [7]: 8 µg/mL
MIC [8]: 32 µg/mL
MIC [9]: 8 µg/mL
MIC [10]: 8 µg/mL
MIC [11]: 32 µg/mL
MIC [12]: 8 µg/mL
MIC [13]: 128 µg/mL
HC50 at 1 h [14]: 59.5 µg/mL
selectivity ratio [15]: 0.5

SMILES: C=CCc1cc(-c2ccc(OCCC[N+](C)(C)CC(=O)NCCCC)c(CC=C)c2)c2oc(-c3ccc(OC)cc3)nc2c1.[Br-]
MIC [1]: 8 µg/mL
MIC [2]: 4 µg/mL
MIC [3]: 2 µg/mL
MIC [4]: 4 µg/mL
MIC [5]: 4 µg/mL
MIC [6]: 2 µg/mL
MIC [7]: 2 µg/mL
MIC [8]: 4 µg/mL
MIC [9]: 2 µg/mL
MIC [10]: 2 µg/mL
MIC [11]: 2 µg/mL
MIC [12]: 2 µg/mL
MIC [13]: > 128 µg/mL
HC50 at 1 h [14]: 320 µg/mL
selectivity ratio [15]: > 40

SMILES: C=CCc1cc(-c2ccc(OCCC[N+](C)(C)CC(=O)NCCCC)c(CC=C)c2)c2oc(-c3cccc(Cl)c3Cl)nc2c1.[Br-]
MIC [1]: 32 µg/mL
MIC [2]: 8 µg/mL
MIC [3]: 16 µg/mL
MIC [4]: 8 µg/mL
MIC [5]: 16 µg/mL
MIC [6]: 4 µg/mL
MIC [7]: 8 µg/mL
MIC [8]: 4 µg/mL
MIC [9]: 4 µg/mL
MIC [10]: 8 µg/mL
MIC [11]: 8 µg/mL
MIC [12]: 8 µg/mL
MIC [13]: 128 µg/mL
HC50 at 1 h [14]: 39.5 µg/mL
selectivity ratio [15]: 1.2

SMILES: C=CCc1cc(-c2ccc(OCCC[N+](C)(C)CC(=O)NCCCC)c(CC=C)c2)c2oc(-c3ccccc3)nc2c1.[Br-]
MIC [1]: 8 µg/mL
MIC [2]: 16 µg/mL
MIC [3]: 2 µg/mL
MIC [4]: 2 µg/mL
MIC [5]: 2 µg/mL
MIC [6]: 4 µg/mL
MIC [7]: 4 µg/mL
MIC [8]: 1 µg/mL
MIC [9]: 2 µg/mL
MIC [10]: 2 µg/mL
MIC [11]: 2 µg/mL
MIC [12]: 2 µg/mL
MIC [13]: > 128 µg/mL
HC50 at 1 h [14]: > 160 µg/mL
selectivity ratio [15]: > 20

SMILES: C=CCc1cc(-c2ccc(OCCC[N+](C)(C)CC(=O)NCCCC)c(CC=C)c2)c2oc(-c3cc(Br)ccc3F)nc2c1.[Br-]
MIC [1]: 64 µg/mL
MIC [2]: 32 µg/mL
MIC [3]: 8 µg/mL
MIC [4]: 8 µg/mL
MIC [5]: 4 µg/mL
MIC [6]: 4 µg/mL
MIC [7]: 8 µg/mL
MIC [8]: 4 µg/mL
MIC [9]: 4 µg/mL
MIC [10]: 4 µg/mL
MIC [11]: 8 µg/mL
MIC [12]: 8 µg/mL
MIC [13]: 128 µg/mL
HC50 at 1 h [14]: > 320 µg/mL
selectivity ratio [15]: > 5

SMILES: C=CCc1cc(-c2ccc(OCCC[N+](C)(C)CC(=O)NCCCC)c(CC=C)c2)c2oc(-c3ccc(F)c(Cl)c3)nc2c1.[Br-]
MIC [1]: 64 µg/mL
MIC [2]: 16 µg/mL
MIC [3]: 8 µg/mL
MIC [4]: 8 µg/mL
MIC [5]: 8 µg/mL
MIC [6]: 4 µg/mL
MIC [7]: 8 µg/mL
MIC [8]: 32 µg/mL
MIC [9]: 8 µg/mL
MIC [10]: 8 µg/mL
MIC [11]: 16 µg/mL
MIC [12]: 8 µg/mL
MIC [13]: > 128 µg/mL
HC50 at 1 h [14]: > 320 µg/mL
selectivity ratio [15]: > 5

SMILES: C=CCc1cc(-c2ccc(OCCC[N+](C)(C)CC(=O)NCCCC)c(CC=C)c2)c2oc(-c3ccc(Cl)c(F)c3)nc2c1.[Br-]
MIC [1]: 64 µg/mL
MIC [2]: 8 µg/mL
MIC [3]: 8 µg/mL
MIC [4]: 16 µg/mL
MIC [5]: 8 µg/mL
MIC [6]: 4 µg/mL
MIC [7]: 8 µg/mL
MIC [8]: 16 µg/mL
MIC [9]: 8 µg/mL
MIC [10]: 8 µg/mL
MIC [11]: 8 µg/mL
MIC [12]: 8 µg/mL
MIC [13]: 128 µg/mL
HC50 at 1 h [14]: 81 µg/mL
selectivity ratio [15]: 1.3

SMILES: C=CCc1cc(-c2ccc(OCCC[N+](C)(C)CC(=O)NCCCC)c(CC=C)c2)c2oc(-c3cc(Cl)cc(Cl)c3)nc2c1.[Br-]
MIC [1]: 128 µg/mL
MIC [2]: 128 µg/mL
MIC [3]: > 128 µg/mL
MIC [4]: 128 µg/mL
MIC [5]: 32 µg/mL
MIC [6]: 64 µg/mL
MIC [7]: 64 µg/mL
MIC [8]: 32 µg/mL
MIC [9]: 128 µg/mL
MIC [10]: 32 µg/mL
MIC [11]: 128 µg/mL
MIC [12]: 128 µg/mL
MIC [13]: > 128 µg/mL
HC50 at 1 h [14]: 81.3 µg/mL
selectivity ratio [15]: 0.6

SMILES: C=CCc1cc(-c2ccc(OCCC[N+](C)(C)CC(=O)NCCCC)c(CC=C)c2)c2oc(-c3cc(F)c(F)c(F)c3)nc2c1.[Br-]
MIC [1]: > 128 µg/mL
MIC [2]: 64 µg/mL
MIC [3]: 32 µg/mL
MIC [4]: 128 µg/mL
MIC [5]: 32 µg/mL
MIC [6]: 32 µg/mL
MIC [7]: 32 µg/mL
MIC [8]: 64 µg/mL
MIC [9]: 64 µg/mL
MIC [10]: 32 µg/mL
MIC [11]: 64 µg/mL
MIC [12]: 32 µg/mL
MIC [13]: > 128 µg/mL
HC50 at 1 h [14]: 64.4 µg/mL
selectivity ratio [15]: < 0.5

SMILES: C=CCc1cc(-c2ccc(OCCC[N+](C)(C)CC(=O)NCCCC)c(CC=C)c2)c2oc(-c3ccc(Cl)cc3)nc2c1.[Br-]
MIC [1]: 16 µg/mL
MIC [2]: 8 µg/mL
MIC [3]: 4 µg/mL
MIC [4]: 4 µg/mL
MIC [5]: 4 µg/mL
MIC [6]: 8 µg/mL
MIC [7]: 4 µg/mL
MIC [8]: 4 µg/mL
MIC [9]: 8 µg/mL
MIC [10]: 4 µg/mL
MIC [11]: 8 µg/mL
MIC [12]: 4 µg/mL
MIC [13]: > 128 µg/mL
HC50 at 1 h [14]: > 640 µg/mL
selectivity ratio [15]: > 40

SMILES: C=CCc1cc(-c2ccc(OCCC[N+](C)(C)CC(=O)NCCCC)c(CC=C)c2)c2oc(-c3cccc(Br)c3)nc2c1.[Br-]
MIC [1]: 32 µg/mL
MIC [2]: 64 µg/mL
MIC [3]: 8 µg/mL
MIC [4]: 8 µg/mL
MIC [5]: 8 µg/mL
MIC [6]: 8 µg/mL
MIC [7]: 8 µg/mL
MIC [8]: 8 µg/mL
MIC [9]: 8 µg/mL
MIC [10]: 8 µg/mL
MIC [11]: 8 µg/mL
MIC [12]: 8 µg/mL
MIC [13]: > 128 µg/mL
HC50 at 1 h [14]: > 320 µg/mL
selectivity ratio [15]: > 10

MIC [13]: 0.063 µg/mL (≈ 0.164 µM)
SMILES: C[C@@H](O)[C@H]1C(=O)N2C(C(=O)O)=C(S[C@@H]3CN[C@H](C(=O)N(C)C)C3)[C@H](C)[C@H]12 [MEROPENEM]

SMILES: C=CCc1cc(-c2ccc(OCCC[N+](C)(C)CC(=O)NCCCC)c(CC=C)c2)c2oc(-c3ccc(Cl)cc3F)nc2c1.[Br-]
MIC [1]: > 128 µg/mL
MIC [2]: > 128 µg/mL
MIC [3]: > 128 µg/mL
MIC [4]: 128 µg/mL
MIC [5]: > 128 µg/mL
MIC [6]: 64 µg/mL
MIC [7]: 128 µg/mL
MIC [8]: 128 µg/mL
MIC [9]: 128 µg/mL
MIC [10]: 128 µg/mL
MIC [11]: 128 µg/mL
MIC [12]: 128 µg/mL
MIC [13]: 128 µg/mL
HC50 at 1 h [14]: > 640 µg/mL

SMILES: C=CCc1cc(-c2ccc(OCCC[N+](C)(C)CC(=O)NCCCC)c(CC=C)c2)c2oc(-c3ccc(Cl)cc3Br)nc2c1.[Br-]
MIC [1]: > 128 µg/mL
MIC [2]: > 128 µg/mL
MIC [3]: 128 µg/mL
MIC [4]: > 128 µg/mL
MIC [5]: > 128 µg/mL
MIC [6]: 128 µg/mL
MIC [7]: 128 µg/mL
MIC [8]: > 128 µg/mL
MIC [9]: > 128 µg/mL
MIC [10]: > 128 µg/mL
MIC [11]: 128 µg/mL
MIC [12]: > 128 µg/mL
MIC [13]: > 128 µg/mL
HC50 at 1 h [14]: > 320 µg/mL
